One data set concerns the target T1, 15-PGDH (Homo sapiens, UniProt P15428).
T1 construct: purchased R&D Systems 5660-DH-010
T1 sequence (P15428 1-266): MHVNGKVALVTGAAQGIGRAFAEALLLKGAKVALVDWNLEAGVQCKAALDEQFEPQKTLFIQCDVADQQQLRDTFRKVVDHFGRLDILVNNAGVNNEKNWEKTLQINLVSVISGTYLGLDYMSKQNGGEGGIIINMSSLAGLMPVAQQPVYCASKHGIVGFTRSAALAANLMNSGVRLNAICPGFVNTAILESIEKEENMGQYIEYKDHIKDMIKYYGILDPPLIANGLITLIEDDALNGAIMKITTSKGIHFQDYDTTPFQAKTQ
Description: 15-PGDH enzyme inhibition assay (fluorescence, NAD+/PGE2). The format is biochemical. The conditions noted are these: 15-PGDH inhibition. The protocol: 15-PGDH (R&D Systems, Cat. No. 5660-DH-010) was prepared to twice the final concentration, i.e., 30 nM, using Assay Buffer (50 mM Tris-HCl, pH 7.5, 0.01% Tween 20 by volume). 15-PGDH was then added to a 384-well white plate (Cisbio Bioassays, Cat. No. 66PL384025) at 8 µL/well. Negative control wells (with Assay Buffer only and without enzyme) were set. The compound was then prepared to 4 times the final concentration using Assay Buffer, i.e., diluted 3-fold to 10 concentrations starting from 4000 nM. The compound was added to the above white plate at 4 µL/well, mixed well, centrifuged at 1000 rpm for 1 minute, and incubated at 25°C for 10 minutes. Both positive control wells (with 15-PGDH only) and negative control wells (without 15-PGDH) were set. A mixture of NAD^+ (Select, Cat. No. S2518) and PGE2 (R&D Systems, Cat. No.:2296110) was then prepared using Assay Buffer. NAD^+ and PGE2 were prepared to four times their final concentrations, i.e., 2 mM and 0.12 mM, respectively, using Assay Buffer. The mixture was then added to the above white plate at 4 µL/well, mixed well, centrifuged at 1000 rpm for 1 minute, and incubated at 25°C for 30 minutes for the reaction. The fluorescence was measured at an excitation wavelength of 340 nm and an emission wavelength of 485 nm using a TECAN SPARK 20M microplate reader. The IC50 value was calculated using four-parameter fitting with GraphPad Prism 8.0.

Data set [1] in a line: Pharmacokinetics in mice (oral gavage). The following applies: mouse, plasma, male CD-1 mice, 10 mg/kg. The format is in vivo. The protocol: The pharmacokinetic properties of the compounds obtained in Example 1 in mice were determined with reference to the following experimental methods.
Three male CD-1 mice were administered by oral gavage at a dose of 10 mg/kg, and the vehicle was 5% DMSO + 10% Solutol + 85% Saline. The mice were fasted overnight, and the time points of blood collection were before administration and at 15 minutes, 30 minutes, 1 hour, 2 hours, 4 hours, 8 hours, and 24 hours after administration. Blood samples were centrifuged at 6,800 g for 6 minutes at 2 to 8°C, and plasma was collected and stored at - 80°C. 10 µL of plasma at each time point was taken and added with 200 µL of methanol containing 100 ng/mL internal standard. The mixture was vortexed, mixed well, and centrifuged at 18,000 g for 7 minutes at 2 to 8°C. 200 µL of the mixture was transferred to a 96-well injection plate for LC-MS/MS quantitative analysis. The main pharmacokinetic parameters were analyzed using WinNonlin 7.0 software with non-compartmental model.

Data set [2] can be described thus: Dynamic solubility test of crystal forms in H2O, SGF, FaSSIF and FeSSIF. The format is physicochemical. The following applies: 37°C; for S: concentration of the compound represented by formula I-3B / solubility thermodynamic at 24 h: loading 10 mg/mL; for solubility thermodynamic at 24 h: read-out: S: concentration of the compound represented by formula I-3B; for FC: crystal form conversion: XRPD; for pH: filtrate. Here is the method:
(§1) The purity test, dynamic solubility test, and stability test in the assay were performed using an ultra-performance liquid chromatograph (UPLC).
After sampling at each time point, the samples were centrifuged (12,000 rpm, 2 minutes) and filtered (0.45 µm PTFE membrane), and the HPLC concentration and pH value of the filtrate were measured. The solid samples after centrifugation were tested for XRPD.

The nature of data set [3]: Solid-state stability evaluation test (XRPD and HPLC). Type of data set: physicochemical. The protocol:
as §1
Their physical and chemical stability were evaluated by XRPD and HPLC.

Data set [4] can be described thus: Hygroscopicity test (DVS). The format is physicochemical. The protocol: Dynamic vapor sorption (DVS) curves were collected on DVS Intrinsic Plus from SMS (Surface Measurement Systems). The relative humidity at 25°C was corrected using the deliquescence points of LiCl, Mg(NO3)2, and KCl.
The test system of data set [5] is mouse IPF prevention model. Description: Efficacy test on mouse IPF prevention model (Bleomycin-induced). The following applies: mean; Nintedanib 60 mg/kg qd, oral gavage, 21 consecutive days. The format is in vivo, mice. Here is the method:
Male mice were adaptively fed for 1 to 2 weeks and after reaching the standard weight (25 g), the IPF model (idiopathic pulmonary fibrosis model) was induced with a certain dose of Bleomycin. On the day of modeling, the animals were randomly divided into a model group and an administration group according to their weight, in which the administration groups were administered Nintedanib (60 mg/kg, once a day (qd)) and compound I-3B obtained in Example 1 (2.5 mg/kg, twice a day (bid)) by oral gavage for 21 consecutive days while the vehicle control group was administered blank vehicle. During the administration period, the animals were weighed every 3 days. At the end of the last day of administration, the animals were euthanized. The lungs were removed from the thyroid cartilage (without perfusion), slowly perfused with 10% formalin until both lungs were filled, and fixed in 10% formalin 5 to 10 times the volume of the tissues after the trachea was ligated. The left lung tissues were embedded in paraffin wax, sectioned, and stained with HE and Masson Trichrome. The sections were subjected to panoramic scanning using a Hamamatsu NanoZoomer Digital Pathology (S210) slide scanner for pathological analysis.

Data set [6] relates to mouse IPF treatment model. Description: Efficacy test on mouse IPF treatment model (Bleomycin-induced). The format is in vivo, mice. The conditions noted are these: mean; Nintedanib 60 mg/kg qd, oral gavage, 14 consecutive days from day 7. The protocol: Male mice were adaptively fed for 1 to 2 weeks and after reaching the standard weight (25 g), the IPF model (idiopathic pulmonary fibrosis model) was induced with a certain dose of Bleomycin. On the day of modeling, the animals were randomly divided into a model group and an administration group according to their weight, in which the administration groups were administered Nintedanib (60 mg/kg, qd), low-dose compound I-3B obtained in Example 1 (1 mg/kg, bid), and high-dose compound I-3B obtained in Example 1 (2.5 mg/kg, bid) by oral gavage for 14 consecutive days starting from day 7 while the vehicle control group was administered blank vehicle. During the administration period, the animals were weighed twice a week. At the end of the last day of administration, the animals were euthanized. The lungs were removed from the thyroid cartilage (without perfusion), slowly perfused with 10% formalin until both lungs were filled, and fixed in 10% formalin 5 to 10 times the volume of the tissues after the trachea was ligated. The left lung tissues were embedded in paraffin wax, sectioned, and stained with HE and Masson Trichrome. The sections were subjected to panoramic scanning using a Hamamatsu NanoZoomer Digital Pathology (S210) slide scanner for pathological analysis.

Each structure is given as a SMILES string. Values after ≈ are worked out from the molar mass of the structure shown. Where two headings read alike, the source gives them in different places.

Usually IC50 stands for the concentration that gives 50% inhibition. As a reminder, the AUC(0-t) is the area under the concentration-time curve up to a stated or last time point. Low readings indicate less exposure, high ones more exposure. By Cmax is commonly meant the maximum level reached in the sampled fluid or tissue. In turn, `Cn1nc2cc(N3CC4CC4c4cc(C(=O)N5CCC(F)(F)CC5)cnc43)ccn2c1=O` (stereo not shown) [compound I-3, 7-(6-(4,4-difluoropiperidine-1-carbonyl)-1,1a,2,7b-tetrahydro-3H-cyclopropa[c][1,8]naphthyridin-3-yl)-2-methyl-[1,2,4]triazolo[4,3-a]pyridin-3(2H)-one] displayed an IC50 against 15-PGDH of 4.2 nM. Also, in data set [1], the AUC(0-t) was 35500 ng·h/mL and the Cmax is 3710 ng/mL.
Take `Cn1nc2cc(N3C[C@H]4C[C@H]4c4cc(C(=O)N5CCC(F)(F)CC5)cnc43)ccn2c1=O` [listing 1 of 2 here]: the “S: concentration of the compound represented by formula I-3B” value worked out at 2.6 mg/mL in data set [2] (FaSSIF, 1 hour); 2.5 mg/mL in data set [2] (FaSSIF, 4 hours); 3.0 mg/mL in data set [2] (FeSSIF, 1 hour); 3.4 mg/mL in data set [2] (FeSSIF, 4 hours); 3.3 mg/mL in data set [2] (H2O, 1 hour); 2.6 mg/mL in data set [2] (H2O, 4 hours). In addition, the “S: concentration of the compound represented by formula I-3B” value in data set [2] (SGF, 1 hour) is listed as 5.3 mg/mL; in data set [2] (SGF, 4 hours), 5.1 mg/mL. The solubility thermodynamic at 24 h in data set [2] (FaSSIF, 24 hours) was 2700 µg/mL (≈ 6.13 mM); in data set [2] (FeSSIF, 24 hours) it was 3900 µg/mL (≈ 8.85 mM); in data set [2] (simulated gastric fluid, SGF, 24 hours), 4700 µg/mL (≈ 10.7 mM); in data set [2] (water, H2O, 24 hours) it was 900 µg/mL (≈ 2.04 mM). The “FC: crystal form conversion” value in data set [2] (FaSSIF, 1 hour) was “No”; in data set [2] (FaSSIF, 4 hours), “No”; in data set [2] (FaSSIF, 24 hours), “No”; in data set [2] (FeSSIF, 1 hour), “No”; in data set [2] (FeSSIF, 4 hours), “No”; in data set [2] (FeSSIF, 24 hours), “No”. Further, the “FC: crystal form conversion” value in data set [2] (H2O, 1 hour) is on record as “No”; in data set [2] (H2O, 4 hours), “No”; in data set [2] (H2O, 24 hours) it was “No”; in data set [2] (SGF, 1 hour), “No”; in data set [2] (SGF, 4 hours), “No”; in data set [2] (SGF, 24 hours), “No”. Moreover, the pH was 6.46 in data set [2] (FaSSIF, 1 hour); 6.60 in data set [2] (FaSSIF, 4 hours); 6.70 in data set [2] (FaSSIF, 24 hours); 4.91 in data set [2] (FeSSIF, 1 hour); 4.96 in data set [2] (FeSSIF, 4 hours); 4.93 in data set [2] (FeSSIF, 24 hours). For the same compound, the pH in data set [2] (H2O, 1 hour) came to 8.57; in data set [2] (H2O, 4 hours), 8.59; in data set [2] (H2O, 24 hours), 8.95; in data set [2] (SGF, 1 hour) it was 1.82; in data set [2] (SGF, 4 hours), 1.94; in data set [2] (SGF, 24 hours), 2.11.
Compound `Cn1nc2cc(N3CC4CC4c4cc(C(=O)N5CCC(F)(F)CC5)cnc43)ccn2c1=O` (stereo not shown) [compound I-3A] had a half-maximal inhibitory concentration (IC50) against 15-PGDH of 12.2 nM.
With `Cn1nc2cc(N3C[C@H]4C[C@H]4c4cc(C(=O)N5CCC(F)(F)CC5)cnc43)ccn2c1=O` [listing 2 of 2 here], the HPLC purity in data set [3] (peak at RRT 0.52 (impurity), 25°C/60% RH/open/1 week) is 0.22 area%; in data set [3] (peak at RRT 0.52 (impurity), 40°C/75% RH/open/1 week), 0.22 area%; in data set [3] (peak at RRT 0.52 (impurity), 60°C/closed/1 day), 0.22 area%; in data set [3] (peak at RRT 0.52 (impurity), Onset), 0.22 area%; in data set [3] (peak at RRT 0.97 (impurity), 25°C/60% RH/open/1 week), 0.10 area%; in data set [3] (peak at RRT 0.97 (impurity), 40°C/75% RH/open/1 week) it was 0.09 area%. The HPLC purity in data set [3] (peak at RRT 0.97 (impurity), 60°C/closed/1 day) came out at 0.10 area%; in data set [3] (peak at RRT 0.97 (impurity), Onset) it was 0.10 area%. For the same compound, the “moisture absorption weight gain” value in data set [4] (25°C/80% RH) was 1.112%. Moreover, the “change in crystal form after DVS testing (XRPD)” value in data set [4] (before and after DVS testing) is “no change in crystal form”.
Take `COC(=O)c1ccc2c(c1)NC(=O)/C2=C(\Nc1ccc(N(C)C(=O)CN2CCN(C)CC2)cc1)c1ccccc1` [Nintedanib, reference compound]: the “Total pulmonary fibrosis score” value in data set [5] is listed as 3.39; in data set [6], 2.84.

These data come from EP4711372A1, “CRYSTAL FORM OF HETEROCYCLIC COMPOUND, SALT THEREOF, CRYSTAL FORM OF SALT THEREOF, AND USE” (Hubei Bio-Pharmaceutical Industrial Technological Institute …, priority 2023, dated 2024).
